From patent publication US12371428B2 (Exelixis, Inc., priority 2019, dated 2025)
Like-named read-outs stand apart in the source and are kept apart here.

Legend:
Type in all cases: cell-based
[1] = target: KDR (phospho-KDR, VEGF165-stimulated HUVEC cells) (Homo sapiens (Human), UniProt P35968); assay: KDR autophosphorylation ELISA in HUVEC cells (Example G); conditions: cellular activity
Method: Human umbilical vein endothelial cells or HUVEC (Lonza #C2519A) were seeded at 2×10^4 cells/well onto 96-well plates (Corning #3904), in EGM-2 growth medium (Lonza #CC-3162) containing 1% Penicillin Streptomycin (Thermo Fisher #15140-122). HUVEC cells were incubated at 37° C., 5% CO2 for 24 h and then starved for 24 h in serum-free EBM-2 basal medium (Lonza #CC-3156) containing 1% Penicillin Streptomycin. Test compounds were serially diluted to produce an 8-point dose curve in fresh serum-free medium to a final concentration of 0.3% DMSO (vehicle) and added to the cells and incubated for 1 h. Cells were then stimulated with 100 ng/mL recombinant human VEGF165 (R&D Systems #293-VE-500) for 5 min, washed with cold PBS, and immediately lysed with […] of cold 1× lysis buffer [20 mM Tris, 137 mM sodium chloride, 2 mM EDTA, 10% glycerol, 1% NP-40 alternative, 1 mM activated sodium orthovanadate, 1 mM PefaBloc SC (Sigma-Aldrich #11429868001), protease/phosphatase inhibitor tablet (Thermo Fisher #A32959)]. Lysates were collected and 100 μL/well added into the human phospho-KDR DuoSet IC ELISA (R&D Systems #DYC1766-2). Assay was performed according to manufacturer's instructions and sample phospho-KDR concentrations were extrapolated using human phospho-KDR control (R&D Systems #841421) as a standard. Positive control wells (100% activity) contained VEGF165-stimulated, DMSO-treated cell lysates. Negative control wells (0% activity) contained non-stimulated cell lysates. IC50 values were calculated by nonlinear regression analysis using a 4-parameter logistic curve fit in ActivityBase XE (IDBS).

[2] = target: Met (phospho-Met, HGF-stimulated PC-3 prostate cancer cells) (Homo sapiens (Human), UniProt P08581); assay: Met autophosphorylation ELISA in PC-3 cells (Example F); conditions: cellular activity, read-out: c-Met IC50
Chain of Met (phospho-Met, HGF-stimulated PC-3 prostate cancer cells) (P08581 25-1390): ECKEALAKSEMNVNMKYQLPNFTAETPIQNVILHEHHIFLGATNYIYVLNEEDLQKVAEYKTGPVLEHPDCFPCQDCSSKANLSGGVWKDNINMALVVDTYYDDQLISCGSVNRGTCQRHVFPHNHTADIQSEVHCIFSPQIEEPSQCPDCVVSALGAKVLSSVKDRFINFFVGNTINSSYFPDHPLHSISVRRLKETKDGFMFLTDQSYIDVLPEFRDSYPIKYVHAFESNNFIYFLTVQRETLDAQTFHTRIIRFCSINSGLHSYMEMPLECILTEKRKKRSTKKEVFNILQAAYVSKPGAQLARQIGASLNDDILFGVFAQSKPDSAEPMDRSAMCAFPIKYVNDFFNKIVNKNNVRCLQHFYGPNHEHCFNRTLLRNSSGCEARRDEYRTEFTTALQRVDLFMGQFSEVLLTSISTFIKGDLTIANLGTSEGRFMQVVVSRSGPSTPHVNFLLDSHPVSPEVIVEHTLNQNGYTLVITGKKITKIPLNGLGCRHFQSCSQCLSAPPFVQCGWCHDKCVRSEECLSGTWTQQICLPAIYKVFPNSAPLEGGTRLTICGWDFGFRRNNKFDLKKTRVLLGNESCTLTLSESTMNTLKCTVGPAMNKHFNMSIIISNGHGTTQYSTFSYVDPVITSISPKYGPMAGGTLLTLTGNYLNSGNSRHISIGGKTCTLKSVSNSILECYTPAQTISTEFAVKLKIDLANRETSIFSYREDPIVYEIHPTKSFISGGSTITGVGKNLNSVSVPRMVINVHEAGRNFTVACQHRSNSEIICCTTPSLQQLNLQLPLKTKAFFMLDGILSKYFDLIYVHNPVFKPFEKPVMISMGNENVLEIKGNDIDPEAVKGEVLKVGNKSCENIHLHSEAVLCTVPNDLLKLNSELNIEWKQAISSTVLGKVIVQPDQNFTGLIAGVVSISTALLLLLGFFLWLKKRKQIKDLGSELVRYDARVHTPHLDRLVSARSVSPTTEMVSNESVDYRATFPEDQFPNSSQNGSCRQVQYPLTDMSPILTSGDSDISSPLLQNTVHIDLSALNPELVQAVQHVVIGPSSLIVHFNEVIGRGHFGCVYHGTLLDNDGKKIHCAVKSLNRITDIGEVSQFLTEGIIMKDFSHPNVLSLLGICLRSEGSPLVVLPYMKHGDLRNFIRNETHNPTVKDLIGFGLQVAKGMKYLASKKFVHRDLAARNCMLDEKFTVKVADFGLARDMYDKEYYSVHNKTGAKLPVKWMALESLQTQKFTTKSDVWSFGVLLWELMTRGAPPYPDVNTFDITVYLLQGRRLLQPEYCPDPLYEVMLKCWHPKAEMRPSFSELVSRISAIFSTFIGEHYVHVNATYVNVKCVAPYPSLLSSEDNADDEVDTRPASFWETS
Method: PC-3 prostate cancer cells (ATCC #CRL-1435) were seeded at 4×10^4 cells/well onto 24-well plates (Greiner #662165), in DMEM (Thermo Fisher #11995-040) containing 10% FBS (Thermo Fisher #26140-079), 1% MEM NEAA (Thermo Fisher #11140-050), 1% GlutaMax (Thermo Fisher #35050-061), and 1% Penicillin Streptomycin (Thermo Fisher #15140-122). PC-3 cells were incubated at 37° C., 5% CO2 for 24 h and then starved for 3 h in serum-free medium. Test compounds were serially diluted to produce an 8-point dose curve in fresh serum-free medium to a final concentration of 0.3% DMSO (vehicle) and added to the cells and incubated for 1 h. Cells were then stimulated with 100 ng/mL recombinant human HGF (R&D Systems #294-HG-250) for 10 min, washed with cold PBS, and immediately lysed with […] of cold 1× lysis buffer [20 mM Tris, 137 mM sodium chloride, 2 mM EDTA, 10% glycerol, 1% NP-40 alternative, 1 mM activated sodium orthovanadate, 1 mM PefaBloc SC (Sigma-Aldrich #11429868001), protease/phosphatase inhibitor tablet (Thermo Fisher #A32959)]. Lysates were clarified by centrifugation and 100 μL/well added into the PathScan phospho-Met (panTyr) Sandwich ELISA (Cell Signaling Technology #7333). Assay was performed according to manufacturer's instructions. Positive control wells (100% activity) contained HGF-stimulated, DMSO-treated cell lysates. Negative control wells (0% activity) contained HGF-stimulated, reference inhibitor-treated cell lysates. IC50 values were calculated by nonlinear regression analysis using a 4-parameter logistic curve fit in ActivityBase XE (IDBS).

[3] = target: Mer (phospho-Mer, MERTK-transfected 293A cells) (Homo sapiens (Human), UniProt Q12866); assay: Mer autophosphorylation ELISA in transient transfected 293A cells (Example H); conditions: cellular activity
Chain of Mer (phospho-Mer, MERTK-transfected 293A cells) (Q12866 21-999): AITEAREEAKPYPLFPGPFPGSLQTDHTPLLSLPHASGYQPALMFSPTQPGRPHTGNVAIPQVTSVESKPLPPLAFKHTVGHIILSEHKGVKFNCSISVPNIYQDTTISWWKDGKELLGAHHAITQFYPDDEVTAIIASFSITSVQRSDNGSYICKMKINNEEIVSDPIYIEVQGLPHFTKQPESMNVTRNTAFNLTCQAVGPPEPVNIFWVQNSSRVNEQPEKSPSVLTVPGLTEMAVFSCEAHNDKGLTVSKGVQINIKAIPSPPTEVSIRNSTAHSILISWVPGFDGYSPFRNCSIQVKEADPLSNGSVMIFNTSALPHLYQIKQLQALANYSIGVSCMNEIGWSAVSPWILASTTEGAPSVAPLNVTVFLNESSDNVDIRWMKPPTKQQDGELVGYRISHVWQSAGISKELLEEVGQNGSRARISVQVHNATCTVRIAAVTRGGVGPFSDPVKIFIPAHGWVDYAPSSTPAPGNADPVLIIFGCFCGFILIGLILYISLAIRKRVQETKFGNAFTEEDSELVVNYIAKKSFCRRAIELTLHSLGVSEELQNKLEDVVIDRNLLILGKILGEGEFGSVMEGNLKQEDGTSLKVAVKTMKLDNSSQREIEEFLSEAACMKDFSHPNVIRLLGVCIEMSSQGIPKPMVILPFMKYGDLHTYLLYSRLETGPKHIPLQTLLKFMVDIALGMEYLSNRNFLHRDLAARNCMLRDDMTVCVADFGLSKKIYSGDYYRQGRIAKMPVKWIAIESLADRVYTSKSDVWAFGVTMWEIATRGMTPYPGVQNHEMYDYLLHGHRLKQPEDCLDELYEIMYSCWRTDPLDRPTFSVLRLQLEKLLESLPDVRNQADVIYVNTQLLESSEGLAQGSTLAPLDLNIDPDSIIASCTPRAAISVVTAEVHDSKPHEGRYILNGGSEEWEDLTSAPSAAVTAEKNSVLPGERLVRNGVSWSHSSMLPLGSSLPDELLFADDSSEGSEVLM
Method: 293A cells (Thermo Fisher #R70507) were seeded at 1.5×10^6 cells/well onto 100 mm dish (Greiner #664169), in DMEM (Thermo Fisher #11995-040) containing 10% FBS (Thermo Fisher #26140-079), 1% MEM NEAA (Thermo Fisher #11140-050), 1% GlutaMax (Thermo Fisher #35050-061), and 1% Penicillin Streptomycin (Thermo Fisher #15140-122). 293A cells were incubated at 37° C., 5% CO2 for 24 h and then transfected with […] MERTK DNA (Genecopoeia #EX-Z8208-M02) using TransIT LT1 transfection reagent (Mirus-Bio #MIR2305). After 24 h incubation, the transfected 293A cells were seeded at 1×10^5 cells/well onto 96-well plates (Corning #3904) in DMEM growth medium overnight. Test compounds were serially diluted to produce an 8-point dose curve in fresh serum-free medium to a final concentration of 0.3% DMSO (vehicle) and added to the cells and incubated for 1 h. Cells were then immediately lysed with 150 μL of cold 1× lysis buffer [20 mM Tris, 137 mM sodium chloride, 2 mM EDTA, 10% glycerol, 1% NP-40 alternative, 1 mM activated sodium orthovanadate, 1 mM PefaBloc SC (Sigma-Aldrich #11429868001), protease/phosphatase inhibitor tablet (Thermo Fisher #A32959)]. Lysates were clarified by centrifugation and 50 µL/well added in to the human phospho-Mer DuoSet IC ELISA (R&D Systems #DYC2579-2). Assay was performed according to manufacturer's instructions and sample phospho-Mer concentrations were extrapolated using human phospho-Mer control (R&D Systems #841793) as a standard. Positive control wells (100% activity) contained DMSO-treated cell lysates. Negative control wells (0% activity) contained reference inhibitor-treated cell lysates. IC50 values were calculated by nonlinear regression analysis using a 4-parameter logistic curve fit in ActivityBase XE (JDBS).

[4] = KDR autophosphorylation ELISA in HUVEC cells
[5] = Met autophosphorylation ELISA in PC-3 cells
[6] = Mer autophosphorylation ELISA in transient transfected 293A cells

Chain of KDR (phospho-KDR, VEGF165-stimulated HUVEC cells) (P35968 20-1356): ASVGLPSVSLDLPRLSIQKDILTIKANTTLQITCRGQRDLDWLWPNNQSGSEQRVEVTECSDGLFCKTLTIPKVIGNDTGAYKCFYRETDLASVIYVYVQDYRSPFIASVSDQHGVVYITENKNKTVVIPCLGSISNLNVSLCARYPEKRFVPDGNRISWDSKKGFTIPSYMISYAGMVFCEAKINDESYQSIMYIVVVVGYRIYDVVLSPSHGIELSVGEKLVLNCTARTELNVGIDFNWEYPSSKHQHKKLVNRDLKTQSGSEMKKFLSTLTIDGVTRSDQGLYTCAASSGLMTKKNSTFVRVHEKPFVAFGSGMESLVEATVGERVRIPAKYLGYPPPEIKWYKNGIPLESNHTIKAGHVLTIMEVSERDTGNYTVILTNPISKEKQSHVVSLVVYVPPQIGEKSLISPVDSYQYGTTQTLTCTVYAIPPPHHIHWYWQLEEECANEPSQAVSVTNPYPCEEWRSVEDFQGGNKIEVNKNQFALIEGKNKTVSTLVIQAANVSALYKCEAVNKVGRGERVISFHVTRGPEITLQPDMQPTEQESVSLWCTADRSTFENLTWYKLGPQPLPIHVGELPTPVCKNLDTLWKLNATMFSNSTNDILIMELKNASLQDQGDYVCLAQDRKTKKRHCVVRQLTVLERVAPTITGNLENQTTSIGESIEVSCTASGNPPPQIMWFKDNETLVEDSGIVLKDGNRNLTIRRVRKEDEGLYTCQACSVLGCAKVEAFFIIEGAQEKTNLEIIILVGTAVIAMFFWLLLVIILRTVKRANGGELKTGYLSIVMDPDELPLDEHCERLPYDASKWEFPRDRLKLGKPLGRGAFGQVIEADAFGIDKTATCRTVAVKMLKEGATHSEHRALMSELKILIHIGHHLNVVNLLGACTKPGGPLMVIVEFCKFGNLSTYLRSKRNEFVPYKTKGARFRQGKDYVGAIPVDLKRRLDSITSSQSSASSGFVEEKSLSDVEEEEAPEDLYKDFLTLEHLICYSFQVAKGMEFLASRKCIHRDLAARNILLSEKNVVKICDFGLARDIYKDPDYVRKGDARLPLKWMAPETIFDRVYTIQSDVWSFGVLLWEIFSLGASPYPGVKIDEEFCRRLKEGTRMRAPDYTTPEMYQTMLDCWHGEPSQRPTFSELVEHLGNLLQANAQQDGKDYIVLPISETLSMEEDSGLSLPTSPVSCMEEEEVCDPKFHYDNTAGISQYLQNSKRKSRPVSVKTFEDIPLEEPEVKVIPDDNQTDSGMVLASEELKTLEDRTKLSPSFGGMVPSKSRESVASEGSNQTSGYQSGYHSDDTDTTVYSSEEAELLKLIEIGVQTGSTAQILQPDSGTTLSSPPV

Row | IC50 [1, 4] | IC50 [2, 5] | IC50 [3, 6] | IC50 ([1]; HUVEC cells) | IC50 ([2]; PC-3 cells) | IC50 ([3]; transfected 293A cells) | Compound
1 | < 100 nM | < 100 nM | < 100 nM | – | – | – | COc1cc2nccc(Oc3ccc(NC(=O)c4c5n(c(C)c(-c6ccc(F)cc6)c4=O)CCOC5)cc3F)c2nc1OC [Compound 775, N-[4-[(6,7-dimethoxy-1,5-naphthyridin-4-yl)oxy]-3-fluorophenyl]-7-(4-fluorophenyl)-6-methyl-8-oxo-3,4-dihydro-1H-pyrido[2,1-c][1,4]oxazine-9-carboxamide]
2 | > 300 nM | < 100 nM | < 100 nM | – | – | – | COc1cc2nccc(Oc3ccc(NC(=O)c4nn(CC(F)F)c(C)c(-c5ccc(F)cc5)c4=O)cc3)c2nc1OC [Compound 776, 1-(2,2-difluoroethyl)-N-[4-[(6,7-dimethoxy-1,5-naphthyridin-4-yl)oxy]phenyl]-5-(4-fluorophenyl)-6-methyl-4-oxopyridazine-3-carboxamide]
3 | < 100 nM | < 100 nM | < 100 nM | – | – | – | COc1cc2nccc(Oc3cc(F)c(NC(=O)c4c(C)nc(C)c(-c5ccc(F)cc5F)c4O)cc3F)c2nc1OC [Compound 777, 5-(2,4-difluorophenyl)-N-[4-[(6,7-dimethoxy-1,5-naphthyridin-4-yl)oxy]-2,5-difluorophenyl]-4-hydroxy-2,6-dimethylpyridine-3-carboxamide]
4 | < 100 nM | < 100 nM | < 100 nM | – | – | – | COCc1nc(C)c(-c2ccc(F)cc2F)c(O)c1C(=O)Nc1cc(F)c(Oc2ccnc3cc(OC)c(OC)nc23)cc1F [Compound 778, 5-(2,4-difluorophenyl)-N-[4-[(6,7-dimethoxy-1,5-naphthyridin-4-yl)oxy]-2,5-difluorophenyl]-4-hydroxy-2-(methoxymethyl)-6-methylpyridine-3-carboxamide]
5 | < 100 nM | < 100 nM | < 100 nM | – | – | – | COc1cnc2c(Oc3cc(F)c(NC(=O)c4c(C)nc(C)c(-c5ccc(F)cc5F)c4O)cc3F)ccnc2c1 [Compound 779, N-[2,5-difluoro-4-[(7-methoxy-1,5-naphthyridin-4-yl)oxy]phenyl]-5-(2,4-difluorophenyl)-4-hydroxy-2,6-dimethylpyridine-3-carboxamide]
6 | 100 to 300 nM | < 100 nM | < 100 nM | – | – | – | CCOCc1nc(C)c(-c2ccc(F)cc2C)c(O)c1C(=O)Nc1ccc(Oc2ccnc3cc(OC)c(OC)nc23)cc1 [Compound 780, N-[4-[(6,7-dimethoxy-1,5-naphthyridin-4-yl)oxy]phenyl]-2-(ethoxymethyl)-5-(4-fluoro-2-methylphenyl)-4-hydroxy-6-methylpyridine-3-carboxamide]
7 | > 300 nM | < 100 nM | < 100 nM | – | – | – | CCOCc1nc(C)c(-c2ccc(F)cc2C)c(O)c1C(=O)Nc1ccc(Oc2ccnc3cc(OC)cnc23)cc1 [Compound 781, 2-(ethoxymethyl)-5-(4-fluoro-2-methylphenyl)-4-hydroxy-N-[4-[(7-methoxy-1,5-naphthyridin-4-yl)oxy]phenyl]-6-methylpyridine-3-carboxamide]
8 | < 100 nM | < 100 nM | < 100 nM | – | – | – | COc1cc2nccc(Oc3ccc(NC(=O)c4c(C)n(CC(F)F)cc(-c5ccc(F)cc5C)c4=O)cc3F)c2nc1OC [Compound 786, 1-(2,2-difluoroethyl)-N-[4-[(6,7-dimethoxy-1,5-naphthyridin-4-yl)oxy]-3-fluorophenyl]-5-(4-fluoro-2-methylphenyl)-2-methyl-4-oxopyridine-3-carboxamide]
9 | > 300 nM | < 100 nM | < 100 nM | – | – | – | COc1cc2nccc(Oc3ccc(NC(=O)c4cc(C(C)O)c(C)n(-c5ccc(F)cc5)c4=O)cc3F)c2nc1OC (stereo not drawn) [Compound 787, N-[4-[(6,7-dimethoxy-1,5-naphthyridin-4-yl)oxy]-3-fluorophenyl]-1-(4-fluorophenyl)-5-(1-hydroxyethyl)-6-methyl-2-oxopyridine-3-carboxamide]
10 | 100 to 300 nM | < 100 nM | < 100 nM | – | – | – | COc1cc2nccc(Oc3ccc(NC(=O)c4c(C)n(CC(F)F)cc(-c5ccc(F)cc5)c4=O)cc3)c2nc1OC [Compound 788, 1-(2,2-difluoroethyl)-N-[4-[(6,7-dimethoxy-1,5-naphthyridin-4-yl)oxy]phenyl]-5-(4-fluorophenyl)-2-methyl-4-oxopyridine-3-carboxamide]
11 | > 300 nM | < 100 nM | < 100 nM | – | – | – | COc1cc2nccc(Oc3ccc(NC(=O)c4c(C)n(CC(F)(F)F)cc(-c5ccc(F)cc5)c4=O)cc3)c2nc1OC [Compound 789, N-[4-[(6,7-dimethoxy-1,5-naphthyridin-4-yl)oxy]phenyl]-5-(4-fluorophenyl)-2-methyl-4-oxo-1-(2,2,2-trifluoroethyl)pyridine-3-carboxamide]
12 | > 300 nM | < 100 nM | < 100 nM | – | – | – | COc1cnc2c(Oc3ccc(NC(=O)c4c(C)n(CC(F)(F)F)cc(-c5ccc(F)cc5)c4=O)cc3F)ccnc2c1 [Compound 790, N-[3-fluoro-4-[(7-methoxy-1,5-naphthyridin-4-yl)oxy]phenyl]-5-(4-fluorophenyl)-2-methyl-4-oxo-1-(2,2,2-trifluoroethyl)pyridine-3-carboxamide]
13 | > 300 nM | < 100 nM | < 100 nM | – | – | – | COc1cc2nccc(Oc3ccc(NC(=O)c4c(C)n(C)c(C)c(-c5ccc(F)cc5C)c4=O)cc3)c2nc1OC [Compound 791, N-[4-[(6,7-dimethoxy-1,5-naphthyridin-4-yl)oxy]phenyl]-5-(4-fluoro-2-methylphenyl)-1,2,6-trimethyl-4-oxopyridine-3-carboxamide]
14 | – | – | – | > 300 nM | < 100 nM | < 100 nM | COc1cnc2c(Oc3ccc(NC(=O)c4c(C)n(CC(F)F)cc(-c5ccc(F)c(F)c5)c4=O)cc3F)ccnc2c1 [Compound 817, 1-(2,2-difluoroethyl)-5-(3,4-difluorophenyl)-N-[3-fluoro-4-[(7-methoxy-1,5-naphthyridin-4-yl)oxy]phenyl]-2-methyl-4-oxopyridine-3-carboxamide]
